Source: article PMC9223764, “In Vitro Selection and Characterization of HIV-1 Variants with Increased Resistance to LP-40, Enfuvirtide-Based Lipopeptide Inhibitor” (International Journal of Molecular Sciences, 2022)
Where a SMILES comes first, the peptide text is derived from it. The star is where a group is joined. Palmitoyl = CCCCCCCCCCCCCCCC(=O)*

Key:
Type in all cases: cell-based
[1] = system: HIV-1 NL4-3 pseudovirus (WT); details: Table 3; for IC50: WT NL4-3, TZM-bl cells, 48 h, luciferase, means, triplicate, repeated three times; for Fold change in IC50: WT NL4-3 reference
Protocol: (§1) The infectivity of HIV Env mutants and the inhibitory activities of membrane fusion inhibitors on mutants in TZM-bl cells were measured using a single-cycle infection assay as described previously. Briefly, the HIV pseudovirus was packed using an Env-coding plasmid, and pSG3ΔEnv was co-transfected into HEK293T cells. pSG3ΔEnv encodes an Env-defective, luciferase-expressing HIV-1 genome. After the pseudoviruses were harvested and filtrated, the amount of pseudoviruses was fixed via P24 antigen, and their infectivity was determined in TZM-bl cells. In order to measure the inhibitory activities of the inhibitors, inhibitors diluted serially 3-fold were mixed with an equal volume of pseudoviruses, and then 100 µL 1 × 10^5/mL TZM-bl cells were added to the mixture and incubated at 37 °C with 5% CO2 for 48 h. After that, TZM-bl cells were lysed using reporter lysis buffer, and IC50 values were calculated according to luciferase activity measured by luciferase assay reagents and a luminescence counter (Promega, Madison, WI, USA).

[2] = system: HIV-1 NL4-3 gp41 I37T pseudovirus; details: Table 3; for Fold change in IC50: I37T relative to WT NL4-3; for IC50: I37T, TZM-bl cells, 48 h, luciferase, means, triplicate, repeated three times
Protocol: (§2) Viral RNA was extracted from the supernatant, and, after reverse transcription, the cDNA was amplified using PCR. These amplified DNA were connected to the T-Easy vector and transformed to Trans 2-Blue Chemically Competent Cells. These sequences were determined via sequencing. The expression plasmids, which contained different HIV-1NL4-3 Env mutants, were constructed using DNA assembly (NEBuilder® HiFi DNA Assembly Master Mix). In brief, two primers were used to amplify Env, and the other two primers were used to amplify the vector fragment. The products of PCR were purified with a 20–25 bp overlap in the terminal of Env and the vector fragment Env and the vector fragment were added to the DNA assembly master mix at […] for 15 min and then transformed to Trans 2-Blue Chemically Competent Cells. Additionally, a single-point mutation was generated using double-stranded DNA templates and a selection of mutants with a restriction enzyme (DpnI) as described previously.
as §1

[3] = system: HIV-1 NL4-3 gp41 I69V pseudovirus; details: Table 3; for Fold change in IC50: I69V relative to WT NL4-3; for IC50: I69V, TZM-bl cells, 48 h, luciferase, means, triplicate, repeated three times
Protocol: as §2, §1

[4] = system: HIV-1 NL4-3 gp41 L33S pseudovirus; details: Table 3; for Fold change in IC50: L33S relative to WT NL4-3; for IC50: L33S, TZM-bl cells, 48 h, luciferase, means, triplicate, repeated three times
Protocol: as §2, §1

[5] = system: HIV-1 NL4-3 gp41 L33S/I37T pseudovirus; details: Table 3; for Fold change in IC50: L33S/I37T relative to WT NL4-3; for IC50: L33S/I37T, TZM-bl cells, 48 h, luciferase, means, triplicate, repeated three times
Protocol: (§3) We selected LP-40-induced drug resistance typical point mutations and combination mutation pseudoviruses to evaluate the current representative membrane fusion inhibitors.
as §1

[6] = system: HIV-1 NL4-3 gp41 L33S/V38A/N42T pseudovirus; details: Table 3; for Fold change in IC50: L33S/V38A/N42T relative to WT NL4-3; for IC50: L33S/V38A/N42T, TZM-bl cells, 48 h, luciferase, means, triplicate, repeated three times
Protocol: as §3, §1

[7] = system: HIV-1 NL4-3 gp41 NDQEEDYN pseudovirus; details: Table 3; for IC50: NDQEEDYN (E109N, N113D, E119Q, D121E, N125E, S129D, H132Y, S133N), TZM-bl cells, 48 h, luciferase, means, triplicate, repeated three times; for Fold change in IC50: NDQEEDYN relative to WT NL4-3
Protocol: as §3, §1

[8] = system: HIV-1 NL4-3 gp41 NDQEEDYN/L33S/I37T pseudovirus; details: Table 3; for Fold change in IC50: NDQEEDYN/L33S/I37T relative to WT NL4-3; for IC50: NDQEEDYN/L33S/I37T, TZM-bl cells, 48 h, luciferase, means, triplicate, repeated three times
Protocol: as §3, §1

[9] = system: HIV-1 NL4-3 gp41 NDQEEDYN/L33S/V38A/N42T pseudovirus; details: Table 3; for Fold change in IC50: NDQEEDYN/L33S/V38A/N42T relative to WT NL4-3; for IC50: NDQEEDYN/L33S/V38A/N42T, TZM-bl cells, 48 h, luciferase, means, triplicate, repeated three times
Protocol: as §3, §1

[10] = system: HIV-1 NL4-3 gp41 V38A/N42T pseudovirus; details: Table 3; for Fold change in IC50: V38A/N42T relative to WT NL4-3; for IC50: V38A/N42T, TZM-bl cells, 48 h, luciferase, means, triplicate, repeated three times
Protocol: as §3, §1

Row | SMILES | IC50 [1] [nM] | Fold change in IC50 [1] [fold] | Fold change in IC50 [2] [fold] | IC50 [2] [nM] | Fold change in IC50 [3] [fold] | IC50 [3] [nM] | Fold change in IC50 [4] [fold] | IC50 [4] [nM] | Fold change in IC50 [5] [fold] | IC50 [5] [nM] | Fold change in IC50 [6] [fold] | IC50 [6] [nM] | IC50 [7] [nM] | Fold change in IC50 [7] [fold] | Fold change in IC50 [8] [fold] | IC50 [8] [nM] | Fold change in IC50 [9] [fold] | IC50 [9] [nM] | Fold change in IC50 [10] [fold] | IC50 [10] [nM]
1 | CC[C@H](C)[C@H](NC(=O)[C@H](C)NC(=O)[C@H](CCCNC(=N)N)NC(=O)[C@H](CC(=O)O)NC(=O)[C@H](Cc1c[nH]c2ccccc12)NC(=O)[C@H](C)NC(=O)[C@H](CCC(=O)O)NC(=O)[C@H](Cc1c[nH]c2ccccc12)NC(=O)[C@@H](NC(=O)[C@@H](NC(C)=O)[C@@H](C)O)[C@@H](C)O)C(=O)N[C@@H](C)C(=O)N[C@@H](CCC(=O)O)C(=O)N[C@@H](Cc1ccc(O)cc1)C(=O)N[C@@H](C)C(=O)N[C@@H](C)C(=O)N[C@@H](CCCNC(=N)N)C(=O)N[C@H](C(=O)N[C@@H](CCC(=O)O)C(=O)N[C@@H](C)C(=O)N[C@@H](CC(C)C)C(=O)N[C@H](C(=O)N[C@@H](CCCNC(=N)N)C(=O)N[C@@H](C)C(=O)N[C@@H](C)C(=O)N[C@@H](CCC(N)=O)C(=O)N[C@@H](CCC(=O)O)C(=O)N[C@@H](CCC(N)=O)C(=O)N[C@@H](CCC(N)=O)C(=O)N[C@@H](CCC(=O)O)C(=O)N[C@@H](CCCCN)C(=O)N[C@@H](CC(N)=O)C(=O)N[C@@H](CCC(=O)O)C(=O)N[C@@H](C)C(=O)N[C@@H](C)C(=O)N[C@@H](CC(C)C)C(=O)N[C@@H](CCCNC(=N)N)C(=O)N[C@@H](CCC(=O)O)C(=O)N[C@@H](CC(C)C)C(N)=O)[C@@H](C)CC)[C@@H](C)CC [T2635] | 0.73 | 1.00 | 1.33 | 0.97 | 1.04 | 0.75 | 1.97 | 1.43 | 2.07 | 1.51 | 1.78 | 1.3 | 1.94 | 2.67 | 7.49 | 5.44 | 7.85 | 5.73 | 0.77 | 0.56
2 | CCCCCCCCCCCCCCCC(=O)NCCCC[C@H](NC(=O)[C@H](CC(C)C)NC(=O)[C@H](CC(C)C)NC(=O)[C@H](CCC(=O)O)NC(=O)[C@H](CCC(=O)O)NC(=O)[C@@H](NC(=O)[C@H](CCCCN)NC(=O)[C@H](CCCCN)NC(=O)[C@H](CCC(=O)O)NC(=O)[C@H](CC(C)C)NC(=O)[C@H](CCC(=O)O)NC(=O)[C@H](CCC(=O)O)NC(=O)[C@@H](NC(=O)[C@H](CCCCN)NC(=O)[C@H](CCCCN)NC(=O)[C@H](CCC(=O)O)NC(=O)[C@H](Cc1c[nH]c2ccccc12)NC(=O)[C@H](CCC(=O)O)NC(=O)[C@H](CCC(=O)O)NC(=O)[C@H](Cc1c[nH]c2ccccc12)NC(=O)[C@@H](NC(=O)[C@H](CCSC)NC(=O)[C@H](CCC(=O)O)NC(C)=O)[C@@H](C)O)C(C)C)[C@@H](C)CC)C(N)=O [LP-19] (Ac-EMTWEEWEKKVEELEKKIEELLK(Palmitoyl)-NH2) | – | 1.00 | 1.62 | – | 1.00 | – | 1.61 | – | 1.25 | – | 0.56 | – | – | 1.68 | 3.04 | – | 1.48 | – | 0.66 | –
3 | CC[C@H](C)[C@H](NC(=O)[C@H](CCC(=O)O)NC(=O)[C@H](CCCNC(=N)N)NC(=O)[C@H](CCC(=O)O)NC(=O)[C@H](Cc1c[nH]c2ccccc12)NC(=O)[C@@H](NC(=O)[C@H](CCC(=O)O)NC(=O)[C@H](Cc1c[nH]c2ccccc12)NC(=O)[C@H](CO)NC(C)=O)[C@@H](C)O)C(=O)N[C@@H](CCC(=O)O)C(=O)N[C@@H](CC(N)=O)C(=O)N[C@@H](Cc1ccc(O)cc1)C(=O)N[C@H](C(=O)N[C@@H](CCCNC(=N)N)C(=O)N[C@@H](CCC(N)=O)C(=O)N[C@H](C(=O)N[C@@H](Cc1ccc(O)cc1)C(=O)N[C@@H](CCCNC(=N)N)C(=O)N[C@H](C(=O)N[C@@H](CC(C)C)C(=O)N[C@@H](CCC(=O)O)C(=O)N[C@@H](CCC(=O)O)C(=O)N[C@@H](CO)C(=O)N[C@@H](CCC(N)=O)C(=O)N[C@@H](CCC(=O)O)C(=O)N[C@@H](CCC(N)=O)C(=O)N[C@@H](CCC(N)=O)C(=O)N[C@@H](CC(=O)O)C(=O)N[C@@H](CCCNC(=N)N)C(=O)N[C@@H](CC(N)=O)C(=O)N[C@@H](CCC(=O)O)C(=O)N[C@@H](CCCNC(=N)N)C(=O)N[C@@H](CC(=O)O)C(=O)N[C@@H](CC(C)C)C(=O)N[C@@H](CC(C)C)C(=O)N[C@@H](CCC(=O)O)C(N)=O)[C@@H](C)CC)[C@@H](C)CC)[C@@H](C)O [SFT] (Ac-SWETWEREIENYTRQIYRILEESQEQQDRNERDLLE-NH2) | 1.56 | 1.00 | 7.21 | 11.2 | 1.07 | 1.67 | 3.00 | 4.67 | 14.72 | 23 | 166.68 | 260 | 8.03 | 5.15 | 70.71 | 110 | 473.54 | 739 | 74.48 | 116
